These compounds were tested on MMP13 expression in SW1353 chondrosarcoma cell line (assay: MMP13 assay: IL-1/OSM-driven MMP13 expression in SW1353 cells (MMP13 ELISA)). Conditions: Homo sapiens, IL-1β and OSM, 48 hr.
Type: cell-based
Procedure: The protocol of the MMP13 ELISA is described in section 4.1, then testing of compounds on release of IL-1/OSM-driven MMP13 expression in SW1353 chondrosarcoma cell line is described in section 4.2.
A 384 well format ELISA for measurement of MMP13 was developed. Various primary antibodies were tested, as well as various ELISA protocols. The following protocol is developed and validated to measure MMP13 levels in supernatant of cell cultures in 384 well plates.
Black maxisorb 384 well plates (Nunc 460518) are coated with 35 μl of a buffered solution containing 1.5 μg/mL anti-MMP13 antibody MAB511 (R&D systems). The antibody is diluted in carbonate-bicarbonate coating buffer (1.59 g Na2CO3 (Sigma S-7795) and 2.93 g NaHCO3 (Sigma S-5761) in 1 L MilliQ water, adjusted to pH 9.6). After overnight incubation at 4° C., wells are washed twice with 100 μL PBST (80 g NaCl, 2 g KCl (Sigma), 11.5 g Na2HPO4.7H2O and 2 g KH2PO4 in 10 L milliQ water; pH 7.4+0.05% Tween-20 (Sigma)) and blocked with 100 μL/well blocking buffer (5% non fat dry milk in PBS). After overnight incubation at 4° C., wells are washed twice with 100 μL PBST. The PBST is removed and 35 μL of sample is transferred to the ELISA plates. After 4 hr incubation at RT, plates are washed twice with PBST and incubated for 1 hr at 37° C. with 35 μL/well 1.5 mM APMA solution (a 10 mM APMA stock solution is prepared one day before (35.18 mg APMA (Sigma A-9563) in 10 mL 0.1M NaOH (Merck 1.06469.1000) and stored at 4° C. Before use, the 10 mM APMA stock solution is diluted to 1.5 mM in 1×APMA buffer (10× APMA buffer: 500 mM Tris (Roche 708976), 50 mM CaCl2 (Sigma C-5080), […] ZnCl2 (Sigma Z-0173), 1.5 M NaCl (Calbiochem 567441), 0.5% Brij35 (Sigma 430 AG-6) and adjust to pH 7.0). After activation of MMP13 by APMA, plates are washed again two times with 100 μL PBST/well and 35 μL of substrate solution is added to each well. Substrate solution is prepared as follows: OmniMMP Fluorescent substrate (Biomol P-126) stock solution (2 mM in DMSO, stored at −20° C.) is diluted in 1× OmniMMP buffer (10× OmniMMP buffer: 500 mM Hepes (Sigma H4034), 100 mM CaCl2 (Sigma C5080), 0.5% Brij35 (Sigma 430 AG-6; adjusted to pH 7.0) to a final concentration of 0.01 mM. After an overnight incubation at 37° C., the active MMP13 in the sample has cleaved the substrate and released fluorescence. Readout is performed on the EnVision (Perkin Elmer) using 320 nm excitation/405 nm emission filters.
Human chondrosarcoma cell line SW1353 was acquired from ATCC and grown in DMEM supplemented with 10% heat-inactivated FBS and 1× penicillin/streptomycin (Invitrogen) in a humidified 5% CO2 incubator at 37° C. Aliquots of the cells were frozen and cryopreserved in liquid nitrogen. Starting from a cryopreserved aliquot, cells are further grown by sub-culturing at a 1/5-1/8 ratio twice a week by trypsinisation.
Starting from the compound master stocks (all at 10 mM concentration in 100% DMSO) a 3-fold serial dilution is made in 96-well plates in 100% DMSO. Then, plates are futher diluted 50-fold in M199 medium supplemented with 1% heat-inactivated FBS to obtain an intermediate work stock.
At day 1, SW1353 cells are seeded in 96-well plates (flat bottom, tissue culture treated, Greiner) at a density of 15000 cells/well in 120 μL growth medium. The next day, 15 μL compound out of the intermediate work stock is added. After an incubation period of 60 minutes, which allows the compounds to equilibrate and enter the cells, cells are stimulated with a mixture of IL-1β and OSM, added in a volume of 15 μL to obtain final concentrations of 1 ng/ml IL-1β and 25 ng/ml OSM. For that, stocks of IL-1 (10 μg/ml) and OSM (25 μg/ml) (both PeproTech) were diluted to 10 ng/ml and 250 ng/ml respectively, in M199 medium supplemented with 1% FBS. After incubation for 48 hr, the cell supernatant was harvested and an appropriate dilution was processed in the MMP13 ELISA as described above, delivering raw data (RFU: relative fluorescence units). […]

Compound | IC50
CC(C)(C)N1C[C@@H]2C[C@H]1CN2c1ccc(Nc2ncc(-c3coc(C(N)=O)c3)n3ncnc23)cc1 [Compound 3, 4-{8-[4-((1S,4S)-5-tert-Butyl-2,5-diaza-bicyclo[2.2.1]hept-2-yl)-phenylamino]-[1,2,4]triazolo[1,5-a]pyrazin-5-yl}-furan-2-carboxamide] | 1 to 500 nM
CC(C)N1C[C@@H]2C[C@H]1CN2c1ccc(Nc2ncc(-c3coc(C(N)=O)c3)n3ccnc23)cc1 [Compound 4, 4-{8-[4-((1S,4S)-5-Isopropyl-2,5-diaza-bicyclo[2.2.1]hept-2-yl)-phenylamino]-imidazo[1,2-a]pyrazin-5-yl}-furan-2-carboxamide] | > 1000 nM
CC(C)N1C[C@@H]2C[C@H]1CN2c1ccc(Nc2ncc(-c3cc(C(N)=O)n[nH]3)n3ncnc23)cc1 [Compound 5, 5-{8-(4-((1S,4S)-5-isopropyl-2,5-diazabicyclo[2.2.1]heptan-2-yl)phenyl-amino)-[1,2,4]triazolo[1,5-a]pyrazin-5-yl}-1H-pyrazole-3-carboxamide] | > 1000 nM
CC(C)(C)N1C[C@@H]2C[C@H]1CN2c1ccc(Nc2ncc(-c3coc(C(N)=O)c3)n3ccnc23)cc1 [Compound 6] | > 1000 nM
CC(C)N1C[C@@H]2C[C@H]1CN2c1ccc(Nc2ncc(-c3cc[nH]c(=O)c3)n3ccnc23)cc1 [Compound 8, 4-{8-(4-((1S,4S)-5-isopropyl-2,5-diazabicyclo[2.2.1]heptan-2-yl)phenyl-amino)imidazo[1,2-a]pyrazin-5-yl}-1H-pyridin-2-one] | 1 to 500 nM
CC(C)N1CC2CCC1CN2c1ccc(Nc2ncc(-c3coc(C(N)=O)c3)n3ncnc23)cc1 (centres unmarked) [Compound 9, 4-{8-(4-(5-isopropyl-2,5-diazabicyclo[2.2.2]octan-2-yl)phenylamino)[1,2,4]-triazolo[1,5-a]pyrazin-5-yl}-furan-2-carboxamide] | > 1000 nM
CC(C)N1CC2CCC(C1)N2c1ccc(Nc2ncc(-c3coc(C(N)=O)c3)n3ccnc23)cc1 [Compound 11, 4-{8-(4-(3-isopropyl-3,8-diazabicyclo[3.2.1]octan-8-yl)phenylamino)-imidazo[1,2-a]pyrazin-5-yl}-furan-2-carboxamide] | > 1000 nM
CC(C)N1C2CCC1CN(c1ccc(Nc3ncc(-c4coc(C(N)=O)c4)n4ncnc34)cc1)C2 [Compound 12, 4-{8-(4-(8-isopropyl-3,8-diazabicyclo[3.2.1]octan-3-yl)phenylamino)[1,2,4]-triazolo[1,5-a]pyrazin-5-yl}-furan-2-carboxamide] | > 1000 nM
CC(C)N1C[C@@H]2C[C@H]1CN2c1ccc(Nc2ncc(-c3cc(C(N)=O)n[nH]3)n3ncnc23)cn1 [Compound 15, 5-{8-(6-((1S,4S)-5-isopropyl-2,5-diazabicyclo[2.2.1]heptan-2-yl)pyridin-3-ylamino)-[1,2,4]triazolo[1,5-a]pyrazin-5-yl}-1H-pyrazole-3-carboxylic acid amide] | > 1000 nM
CC(C)(C)N1C[C@@H]2C[C@H]1CN2c1ccc(Nc2ncc(-c3ccc4c(c3)CNC4=O)n3ncnc23)cc1 [Compound 16, 5-{8-(4-((1S,4S)-5-tert-butyl-2,5-diazabicyclo[2.2.1]heptan-2-yl)phenylamino)-[1,2,4]triazolo-[1,5-a]pyrazin-5-yl}-2,3-dihydro-isoindol-1-one] | > 1000 nM
CC(C)(C)N1C[C@@H]2C[C@H]1CN2c1ccc(Nc2ncc(-c3cc(C(N)=O)n[nH]3)n3ncnc23)cc1 [Compound 17, 5-{8-(4-((1S,4S)-5-tert-butyl-2,5-diazabicyclo[2.2.1]heptan-2-yl)phenyl-amino)-[1,2,4]triazolo[1,5-a]pyrazin-5-yl}-1H-pyrazole-3-carboxylic acid amide] | 501 to 1000 nM
CC(C)N1C[C@@H]2C[C@H]1CN2c1ccc(Nc2ncc(-c3ccc4c(c3)CNC4=O)n3ncnc23)cn1 [Compound 18, 5-{8-(6-((1S,4S)-5-isopropyl-2,5-diazabicyclo[2.2.1]heptan-2-yl)pyridin-3-ylamino)-[1,2,4]triazolo[1,5-a]pyrazin-5-yl}-2,3-dihydro-isoindol-1-one] | > 1000 nM
CCOc1cc(-c2cnc(Nc3ccc(N4C[C@@H]5C[C@H]4CN5C(C)C)cc3)c3ncnn23)ccn1 [Compound 19, 5-(2-ethoxypyridin-4-yl)-N-(4-((1S,4S)-5-isopropyl-2,5-diazabicyclo[2.2.1]heptan-2-yl)phenyl)-[1,2,4]triazolo[1,5-a]pyrazin-8-amine] | > 1000 nM
CC(C)N1C[C@@H]2C[C@H]1CN2c1ccc(Nc2ncc(-c3cc[nH]c(=O)c3)n3ncnc23)cc1 [Compound 20, 4-(8-(4-((1S,4S)-5-isopropyl-2,5-diazabicyclo[2.2.1]heptan-2-yl)phenylamino)-[1,2,4]triazolo[1,5-a]pyrazin-5-yl)pyridin-2(1H)-one] | > 1000 nM
CCOC(=O)c1cc(-c2cnc(Nc3ccc(N4C[C@@H]5C[C@H]4CN5C(C)C)cc3)c3ncnn23)[nH]n1 [Compound 21, Ethyl 5-(8-(4-((1S,4S)-5-isopropyl-2,5-diazabicyclo[2.2.1]heptan-2-yl)phenylamino)-[1,2,4]triazolo[1,5-a]pyrazin-5-yl)-1H-pyrazole-3-carboxylate] | > 1000 nM
CCOc1cc(-c2cnc(Nc3ccc(N4C[C@@H]5C[C@H]4CN5C(C)C)cc3)c3nccn23)ccn1 [Compound 22, 5-(2-ethoxypyridin-4-yl)-N-(4-((1S,4S)-5-isopropyl-2,5-diazabicyclo[2.2.1]heptan-2-yl)phenyl)imidazo[1,2-a]pyrazin-8-amine] | > 1000 nM
CC(C)N1C[C@@H]2C[C@H]1CN2c1ccc(Nc2ncc(-c3noc(C(N)=O)n3)n3ncnc23)cc1 [Compound 23, 3-(8-(4-((1S,4S)-5-isopropyl-2,5-diazabicyclo[2.2.1]heptan-2-yl)phenylamino)-[1,2,4]triazolo[1,5-a]pyrazin-5-yl)-1,2,4-oxadiazole-5-carboxamide] | > 1000 nM
CC(C)N1C[C@@H]2C[C@H]1CN2c1cccc(Nc2ncc(-c3coc(C(N)=O)c3)n3ncnc23)c1 [Compound 24, 4-(8-(3-((1S,4S)-5-isopropyl-2,5-diazabicyclo[2.2.1]heptan-2-yl)phenylamino)-[1,2,4]triazolo[1,5-a]pyrazin-5-yl)furan-2-carboxamide] | > 1000 nM
CC(C)N1C[C@@H]2C[C@H]1CN2c1cccc(Nc2ncc(-c3coc(C(N)=O)c3)n3ccnc23)c1 [Compound 25, 4-(8-(3-((1S,4S)-5-isopropyl-2,5-diazabicyclo[2.2.1]heptan-2-yl)phenylamino)imidazo[1,2-a]pyrazin-5-yl)furan-2-carboxamide] | > 1000 nM
CC(C)N1C[C@@H]2C[C@H]1CN2c1cccc(Nc2ncc(-c3ccc4c(c3)CNC4=O)n3ncnc23)c1 [Compound 26, 5-(8-(3-((1S,4S)-5-isopropyl-2,5-diazabicyclo[2.2.1]heptan-2-yl)phenylamino)-[1,2,4]triazolo[1,5-a]pyrazin-5-yl)isoindolin-1-one] | > 1000 nM
